Laboratory results: PubChem BioAssay (NCI)
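Test compounds were applied to cells in 96-well plates for 48 hours at 5 doses. TGI denotes the concentration required for complete inhibition of growth.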

Columns and labels:
Assay in all cases: growth of human tumour cells (NCI), 48 h
SF-295 CNS = test system: SF-295 CNS
SK-OV-3 ovarian = test system: SK-OV-3 ovarian
HCT-116 colon = test system: HCT-116 colon
MALME-3M melanoma = test system: MALME-3M melanoma
NCI-H522 lung = test system: NCI-H522 lung
786-0 renal = test system: 786-0 renal
COLO 205 colon = test system: COLO 205 colon
EKVX NSCLC = test system: EKVX NSCLC
A549 NSCLC = test system: A549 NSCLC
SR leukemia = test system: SR leukemia
OVCAR-4 ovarian = test system: OVCAR-4 ovarian

| SMILES | TGI (SF-295 CNS) [µM] | TGI (SK-OV-3 ovarian) [µM] | TGI (HCT-116 colon) [µM] | TGI (MALME-3M melanoma) [µM] | TGI (NCI-H522 lung) [µM] | TGI (786-0 renal) [µM] | TGI (COLO 205 colon) [µM] | TGI (EKVX NSCLC) [µM] | TGI (A549 NSCLC) [µM] | TGI (SR leukemia) [µM] | TGI (OVCAR-4 ovarian) [µM] |
| --- | --- | --- | --- | --- | --- | --- | --- | --- | --- | --- | --- |
| O=S(=O)(O)c1ccc2c(N=Nc3cccc4ccccc34)c(O)ccc2c1 | > 100 | > 100 | > 100 | > 100 | > 100 | > 100 | > 100 | > 100 | > 100 | > 100 | > 100 |
| O=[N+]([O-])c1cc(Br)cc2cc(Cl)cnc12 | > 100 | > 100 | > 100 | > 100 | > 100 | > 100 | > 100 | > 100 | > 100 | > 100 | > 100 |
| Cc1sc2c(c1C)C(=O)c1cccn1-2 | > 100 | > 100 | > 100 | > 100 | > 100 | > 100 | > 100 | > 100 | > 100 | > 100 | > 100 |
| Cc1cc(C)cc(Nc2nnc3n2S(=O)(=O)c2cc(C)c(Cl)cc2S3)c1 | > 100 | > 100 | > 100 | 13.7 | 22.6 | > 100 | > 100 | 52.2 | 45.1 | 13.9 | > 100 |
| CCO/C(O)=C(/C(=N)N1CCOCC1)C(=O)Nc1cccc(C(F)(F)F)c1 | > 100 | > 100 | > 100 | > 100 | > 100 | > 100 | > 100 | > 100 | > 100 | – | > 100 |
| C=CCn1c(-c2cc(C(C)(C)C)c(O)c(C(C)(C)C)c2)cs/c1=N\C(P(=O)(O)O)P(=O)(O)O | > 100 | > 100 | > 100 | > 100 | – | > 100 | > 100 | > 100 | > 100 | > 100 | > 100 |
| CCOC(=O)COc1cc(-c2ccccc2F)nc2cc3c(cc12)OCO3 | > 100 | > 100 | > 100 | > 100 | – | > 100 | > 100 | > 100 | > 100 | – | – |
| CN(C)c1ccc(/C=C/C(=O)c2cc(C(C)(C)C)c(O)c(C(C)(C)C)c2)cc1 | 5.33 | > 100 | 24.4 | > 100 | 6 | 8.03 | 2.65 | > 100 | > 100 | – | > 100 |
| Cc1ccc(Nc2c3c(c(C#N)c4nc5ccccc5n24)CCCC3)cc1 | 44.1 | > 100 | 36.8 | 77.9 | 82.4 | > 100 | 50.6 | > 100 | > 100 | – | > 100 |
| CC[C@H](C)[C@H](NC(=O)N(CCC#N)CCN(CCN(C(=O)N[C@@H](Cc1ccccc1)C(=O)OC)c1ccccc1)C(=O)N[C@H](C(=O)OC)C(C)C)C(=O)OC | 37.9 | 41.2 | 36 | 35 | – | 17.1 | 52.6 | 69.2 | > 100 | – | 62 |
| CC(=N/NC(=S)N1CCCCCC1)/C(C)=N\NC(=S)N1CCCCCC1 | 12.5 | 8.85 | > 20.8 | 11.1 | 8.97 | 9.79 | 38.5 | 10.6 | 18.1 | – | – |
| COC(CNC(=O)CNC(=O)c1ccc(C(F)(F)F)cc1)OC | > 100 | > 100 | > 100 | > 100 | > 100 | > 100 | > 100 | > 100 | > 100 | > 100 | – |
| COc1ccc2c(c1)CC[C@@H]1[C@@H]2CC[C@]2(C)/C(=N/OCCN3CCCC3)CC[C@@H]12 | 4.63 | – | 3.43 | 3.17 | 11.5 | 3.37 | 3.06 | 12.3 | 7.7 | 4.49 | 24.3 |
| CC1=C(C(=O)NNC(=O)Cc2ccccc2)CC(C(=O)NNC(=O)Cc2ccccc2)=C(C)N1 | > 100 | > 100 | > 100 | – | – | > 100 | > 100 | > 100 | > 100 | – | > 100 |
| CCOC(=O)NN(C(=O)OCC)c1ccc(N=Nc2ccc(OC)cc2)n1C | > 100 | > 100 | 34.4 | 62.7 | 60.4 | 97.9 | 41.3 | > 100 | 63.5 | – | > 100 |
| COc1ccc(-c2nc(-c3ccc(OC)cc3)n(-c3ccccc3)n2)cc1 | > 100 | > 100 | > 100 | – | 62.5 | > 100 | > 100 | > 100 | > 100 | – | > 100 |
| Cc1nc2cn3c(c2c(=O)[nH]1)CCCCC3 | > 100 | > 100 | > 100 | – | – | > 100 | > 100 | > 100 | – | > 100 | > 100 |
| c1ccc(-c2csc3c2-n2cccc2C3N2CCCC2)cc1 (stereo not drawn) | > 100 | – | > 100 | > 100 | > 100 | > 100 | – | > 100 | > 100 | > 100 | > 100 |
| C/C=C/CC(C(=O)OCC)(N(C)C(=O)OC(C)(C)C)S(=O)(=O)c1ccc(C)cc1 (stereo not drawn) | > 100 | – | > 100 | > 100 | > 100 | > 100 | > 100 | > 100 | > 100 | – | > 100 |
| O=C1CC(c2ccc(Cl)cc2)C2(C(=O)NC(=S)NC2=O)C(c2ccc(Cl)cc2)C1 (stereo not drawn) | 35.9 | 29 | 45.5 | 52.1 | – | > 100 | 30.6 | 91.7 | 73 | > 100 | 37.9 |
| O=[N+]([O-])c1ccc(CSc2nn(Cc3ccc([N+](=O)[O-])cc3)cc3ncnc2-3)cc1 | > 100 | > 100 | > 100 | 65.2 | 67.8 | > 100 | > 100 | > 100 | > 100 | – | > 100 |
